Experimental data reported in patent US8822517B2, “Arylosulfonamides for the treatment of CNS diseases” (Adamed SP. Z O.O., priority 2010, dated 2014).
Like-named read-outs stand apart in the source and are kept apart here.

Experiments:
hERG potassium channels = hERG potassium channels (Homo sapiens, UniProt Q12809); experiment: hERG potassium channel block, electrophysiology (IonWorks Quattro), CHO cells
[1] = biological target: serotoninergic 5-HT6 receptor (Homo sapiens, UniProt P50406); experiment: Binding assay 5-HT6 (h), [3H]LSD, CHO cells; design: expressed in transfected cells; host or cells: CHO cells; conditions: read-out: 5-HT6
Sequence of serotoninergic 5-HT6 receptor (P50406 whole entry): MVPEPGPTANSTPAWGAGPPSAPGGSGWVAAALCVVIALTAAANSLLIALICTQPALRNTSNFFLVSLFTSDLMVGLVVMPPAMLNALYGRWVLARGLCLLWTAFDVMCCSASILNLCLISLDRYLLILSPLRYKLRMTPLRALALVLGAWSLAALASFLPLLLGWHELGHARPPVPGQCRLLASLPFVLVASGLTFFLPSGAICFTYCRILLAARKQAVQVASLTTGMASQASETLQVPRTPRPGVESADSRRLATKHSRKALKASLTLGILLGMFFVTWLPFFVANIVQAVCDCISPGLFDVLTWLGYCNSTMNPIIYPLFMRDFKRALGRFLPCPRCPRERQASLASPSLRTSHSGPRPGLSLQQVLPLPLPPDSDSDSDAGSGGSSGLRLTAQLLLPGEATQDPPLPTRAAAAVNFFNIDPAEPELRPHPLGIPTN
How it was run: (§1)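 At 1×10^−6 M, compounds were assessed for their effect on specific radioligand binding, computed as total less nonspecific binding (excess unlabelled ligand present).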

dopaminergic D3 receptor = dopaminergic D3 receptor (Homo sapiens, UniProt P35462); experiment: Binding assay D3 (h), [3H]methyl-spiperone, CHO cells; design: expressed in transfected cells; host or cells: CHO cells; conditions: read-out: D3 [%]
Sequence of dopaminergic D3 receptor (P35462 whole entry): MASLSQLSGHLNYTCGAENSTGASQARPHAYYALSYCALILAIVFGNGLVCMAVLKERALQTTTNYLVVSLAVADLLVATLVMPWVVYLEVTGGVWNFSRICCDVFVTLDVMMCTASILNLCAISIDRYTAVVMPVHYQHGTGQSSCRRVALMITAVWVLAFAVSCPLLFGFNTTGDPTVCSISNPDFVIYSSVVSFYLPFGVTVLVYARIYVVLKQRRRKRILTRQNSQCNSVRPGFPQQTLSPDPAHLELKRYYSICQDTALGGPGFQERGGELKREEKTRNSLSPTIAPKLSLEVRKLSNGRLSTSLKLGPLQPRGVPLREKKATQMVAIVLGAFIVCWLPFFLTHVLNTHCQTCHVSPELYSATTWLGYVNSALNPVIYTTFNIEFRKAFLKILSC
How it was run: as §1

sigma σ receptor = experiment: Binding assay σ (non-selective), [3H]DTG, rat cerebral cortex; conditions: percent inhibition of control specific binding; compounds tested at 1×10^−6 M
How it was run: as §1

[2] = biological target: T1, serotonine transporter (SERT) receptor (Homo sapiens, UniProt P31645); experiment: Binding assay SERT (h), [3H]imipramine, CHO cells; conditions: read-out: SERT [%]
T1 construct: expressed in transfected cells; host or cells: CHO cells
T1 sequence (P31645 whole entry): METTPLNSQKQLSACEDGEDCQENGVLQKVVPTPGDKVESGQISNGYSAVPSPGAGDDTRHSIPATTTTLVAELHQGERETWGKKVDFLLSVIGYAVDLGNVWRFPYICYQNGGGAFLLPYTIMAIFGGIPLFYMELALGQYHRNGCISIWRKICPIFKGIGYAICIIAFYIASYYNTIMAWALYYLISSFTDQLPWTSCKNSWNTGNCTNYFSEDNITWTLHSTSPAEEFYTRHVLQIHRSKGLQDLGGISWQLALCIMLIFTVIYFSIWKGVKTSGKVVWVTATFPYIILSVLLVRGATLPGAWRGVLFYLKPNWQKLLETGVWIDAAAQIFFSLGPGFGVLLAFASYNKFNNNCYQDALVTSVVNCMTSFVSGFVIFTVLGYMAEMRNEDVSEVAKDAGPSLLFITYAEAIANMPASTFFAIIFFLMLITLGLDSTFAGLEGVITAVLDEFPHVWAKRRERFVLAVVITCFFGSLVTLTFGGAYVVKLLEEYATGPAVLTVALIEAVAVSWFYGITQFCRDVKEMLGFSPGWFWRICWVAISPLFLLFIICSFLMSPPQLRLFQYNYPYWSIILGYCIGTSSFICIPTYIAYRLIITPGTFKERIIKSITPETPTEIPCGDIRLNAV
How it was run: as §1

adrenergic α2C receptor [3] = biological target: T2, adrenergic α2C receptor (Homo sapiens, UniProt P18825); experiment: Binding assay α2C (h), [3H]RX 821002, CHO cells; design: expressed in transfected cells; host or cells: CHO cells; conditions: read-out: α2C [%]
T2 sequence (P18825 1-462): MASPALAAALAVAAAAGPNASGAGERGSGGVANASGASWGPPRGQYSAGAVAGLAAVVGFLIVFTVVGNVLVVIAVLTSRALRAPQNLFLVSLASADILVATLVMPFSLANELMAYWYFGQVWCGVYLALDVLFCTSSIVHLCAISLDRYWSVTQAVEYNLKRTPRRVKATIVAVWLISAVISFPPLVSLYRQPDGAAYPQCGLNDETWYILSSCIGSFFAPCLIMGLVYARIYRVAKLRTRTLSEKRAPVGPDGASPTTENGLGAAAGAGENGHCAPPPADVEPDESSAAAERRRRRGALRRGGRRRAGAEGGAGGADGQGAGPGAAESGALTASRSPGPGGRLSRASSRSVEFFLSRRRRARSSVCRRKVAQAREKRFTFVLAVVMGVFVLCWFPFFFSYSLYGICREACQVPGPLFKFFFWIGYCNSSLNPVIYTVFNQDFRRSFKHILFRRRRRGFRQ
How it was run: as §1

[4] = biological target: T3, serotoninergic 5-HT1A receptor (Homo sapiens, UniProt P08908); experiment: Binding assay 5-HT1A (h), [3H]8-OH-DPAT, HEK-293 cells; design: expressed in transfected cells; host or cells: HEK-293 cells; conditions: read-out: 5-HT1A
T3 sequence (P08908 1-422): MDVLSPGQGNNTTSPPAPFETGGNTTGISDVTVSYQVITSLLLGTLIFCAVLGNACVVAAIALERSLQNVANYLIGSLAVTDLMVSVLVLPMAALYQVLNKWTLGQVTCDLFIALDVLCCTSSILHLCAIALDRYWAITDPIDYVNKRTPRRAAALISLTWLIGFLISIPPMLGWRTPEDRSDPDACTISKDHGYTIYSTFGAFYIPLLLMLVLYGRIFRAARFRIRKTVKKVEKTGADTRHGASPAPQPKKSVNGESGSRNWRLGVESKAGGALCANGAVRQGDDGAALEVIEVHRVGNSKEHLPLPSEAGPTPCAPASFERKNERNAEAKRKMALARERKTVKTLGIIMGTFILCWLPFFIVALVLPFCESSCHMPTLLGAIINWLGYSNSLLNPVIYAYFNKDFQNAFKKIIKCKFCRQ
How it was run: as §1

adrenergic α1 receptor = experiment: Binding assay α1 (non-selective), [3H]prazosin, rat cerebral cortex; conditions: percent inhibition of control specific binding; compounds tested at 1×10^−6 M
How it was run: as §1

adrenergic α2C receptor [5] = biological target: T2, adrenergic α2C receptor; experiment: Cellular functional assay, adrenergic α2C receptor (agonism/antagonism); assay type: cell-based; conditions: for activation at 1 µM: read-out: α2C −ag [%]; for inhibition at 1 µM: read-out: α2C −antag. [%]
Experimental: (§2) The compounds were tested at the concentration of 1×10^−6M.
(§3) In the Tables ag refers to agonism, and antag to antagonism).

[6] = biological target: serotoninergic 5-HT2A receptor (Homo sapiens, UniProt P28223); experiment: Binding assay 5-HT2A (h), [3H]ketanserin, HEK-293 cells; design: expressed in transfected cells; host or cells: HEK-293 cells; conditions: read-out: 5-HT2A
Sequence of serotoninergic 5-HT2A receptor (P28223 whole entry): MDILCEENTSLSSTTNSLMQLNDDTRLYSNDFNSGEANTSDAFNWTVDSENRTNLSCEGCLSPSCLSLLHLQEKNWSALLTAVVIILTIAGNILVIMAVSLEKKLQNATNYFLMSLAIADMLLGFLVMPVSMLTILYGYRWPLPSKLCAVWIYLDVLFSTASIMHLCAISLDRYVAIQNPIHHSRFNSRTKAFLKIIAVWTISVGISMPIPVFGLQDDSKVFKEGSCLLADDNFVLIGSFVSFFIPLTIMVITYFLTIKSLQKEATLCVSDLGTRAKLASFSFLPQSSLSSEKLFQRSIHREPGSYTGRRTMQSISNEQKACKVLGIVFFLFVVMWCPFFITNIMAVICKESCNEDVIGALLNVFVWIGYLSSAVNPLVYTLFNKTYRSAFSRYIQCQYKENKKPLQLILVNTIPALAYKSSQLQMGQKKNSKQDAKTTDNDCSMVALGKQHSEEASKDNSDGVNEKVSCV
How it was run: as §1

[7] = biological target: T3, serotoninergic 5-HT1A receptor; experiment: Cellular functional assay, serotoninergic 5-HT1A receptor (agonism/antagonism); assay type: cell-based
Experimental: as §2, §3

[8] = biological target: serotoninergic 5-HT7 receptor (Homo sapiens, UniProt P34969); experiment: Cellular functional assay, serotoninergic 5-HT7 receptor (agonism/antagonism); assay type: cell-based; conditions: for activation at 1 µM: read-out: 5-HT7-ag [%]; for inhibition at 1 µM: read-out: 5-HT7-antag. [%]
Sequence of serotoninergic 5-HT7 receptor (P34969 whole entry): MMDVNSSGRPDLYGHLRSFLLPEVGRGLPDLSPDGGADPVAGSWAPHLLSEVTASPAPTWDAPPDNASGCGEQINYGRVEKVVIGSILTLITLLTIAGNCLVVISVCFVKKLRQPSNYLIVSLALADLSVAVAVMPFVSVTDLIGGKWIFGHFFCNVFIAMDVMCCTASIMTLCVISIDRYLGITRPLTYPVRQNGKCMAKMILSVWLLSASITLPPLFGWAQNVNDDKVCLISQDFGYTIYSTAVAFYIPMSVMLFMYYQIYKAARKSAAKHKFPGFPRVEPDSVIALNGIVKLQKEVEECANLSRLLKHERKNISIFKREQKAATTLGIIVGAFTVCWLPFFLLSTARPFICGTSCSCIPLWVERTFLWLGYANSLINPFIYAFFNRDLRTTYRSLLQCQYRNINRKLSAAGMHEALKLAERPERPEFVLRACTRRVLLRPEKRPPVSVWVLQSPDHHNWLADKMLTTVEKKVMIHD
Experimental: as §2, §3

dopaminergic D2 receptor = dopaminergic D2 receptor (Homo sapiens, UniProt P14416); experiment: Binding assay D2S (h), [3H]methyl-spiperone, HEK-293 cells; design: expressed in transfected cells; host or cells: HEK-293 cells; conditions: read-out: D2 [%]
Sequence of dopaminergic D2 receptor (P14416 1-414 isoform P14416-2): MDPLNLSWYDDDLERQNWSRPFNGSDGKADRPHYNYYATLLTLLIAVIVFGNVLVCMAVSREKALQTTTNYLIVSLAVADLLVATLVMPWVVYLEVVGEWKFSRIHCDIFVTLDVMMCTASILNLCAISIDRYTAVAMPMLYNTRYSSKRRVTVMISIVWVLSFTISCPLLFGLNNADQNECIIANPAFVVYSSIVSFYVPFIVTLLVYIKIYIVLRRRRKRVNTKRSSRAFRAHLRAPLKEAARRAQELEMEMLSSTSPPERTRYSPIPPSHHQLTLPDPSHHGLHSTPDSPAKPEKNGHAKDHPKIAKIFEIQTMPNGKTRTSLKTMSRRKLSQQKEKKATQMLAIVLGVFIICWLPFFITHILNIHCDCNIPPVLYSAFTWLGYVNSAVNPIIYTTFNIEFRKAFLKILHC
How it was run: as §1

[9] = % block of hERG current, cloned hERG channels in CHO cells, IonWorks Quattro
[10] = agonist effect, percent of control specific agonist response, compounds tested at 1×10^−6M
[11] = CHO; read-out: 5-HT1A-antag. [%]
[12] = agonist effect, percent of control specific agonist response (100 nM 8-OH-DPAT for control); 1×10^−6 M; 5-HT1A (h), CHO cells; read-out: 5-HT1A-ag [%]

Sequence of hERG potassium channels (Q12809 whole entry): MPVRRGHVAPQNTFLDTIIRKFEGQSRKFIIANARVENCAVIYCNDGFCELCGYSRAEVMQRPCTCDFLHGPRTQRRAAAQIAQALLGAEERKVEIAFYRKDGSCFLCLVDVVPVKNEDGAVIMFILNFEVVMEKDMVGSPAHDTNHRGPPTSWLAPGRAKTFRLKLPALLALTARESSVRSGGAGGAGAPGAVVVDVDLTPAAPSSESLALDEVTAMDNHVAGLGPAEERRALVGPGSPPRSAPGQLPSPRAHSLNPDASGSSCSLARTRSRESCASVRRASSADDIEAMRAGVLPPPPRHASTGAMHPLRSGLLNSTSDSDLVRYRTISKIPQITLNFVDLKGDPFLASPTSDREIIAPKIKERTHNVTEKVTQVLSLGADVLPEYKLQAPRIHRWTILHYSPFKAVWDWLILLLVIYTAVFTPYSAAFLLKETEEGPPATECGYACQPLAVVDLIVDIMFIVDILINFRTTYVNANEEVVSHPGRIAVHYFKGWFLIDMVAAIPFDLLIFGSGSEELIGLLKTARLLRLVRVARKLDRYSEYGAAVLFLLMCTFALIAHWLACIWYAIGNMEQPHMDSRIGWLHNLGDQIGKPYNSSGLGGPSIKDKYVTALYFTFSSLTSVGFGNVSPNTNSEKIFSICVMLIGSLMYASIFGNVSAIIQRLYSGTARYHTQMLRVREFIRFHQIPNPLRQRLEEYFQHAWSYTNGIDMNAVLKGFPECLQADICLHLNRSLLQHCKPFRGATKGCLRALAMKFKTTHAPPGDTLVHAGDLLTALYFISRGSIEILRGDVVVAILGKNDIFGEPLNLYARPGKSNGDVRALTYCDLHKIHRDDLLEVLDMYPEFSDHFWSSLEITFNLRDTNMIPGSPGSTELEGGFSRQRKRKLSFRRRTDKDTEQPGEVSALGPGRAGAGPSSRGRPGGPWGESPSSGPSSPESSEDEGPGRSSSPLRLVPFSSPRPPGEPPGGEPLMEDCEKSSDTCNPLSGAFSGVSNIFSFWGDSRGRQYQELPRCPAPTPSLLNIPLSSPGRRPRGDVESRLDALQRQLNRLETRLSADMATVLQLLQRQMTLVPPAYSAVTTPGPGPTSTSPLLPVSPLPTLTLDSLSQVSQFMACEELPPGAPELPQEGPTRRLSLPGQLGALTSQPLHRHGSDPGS

Row | SMILES | inhibition at 1 µM [1] | inhibition at 1 µM (dopaminergic D3 receptor) | σ [%] (sigma σ receptor) | inhibition at 1 µM [2] | inhibition at 1 µM (adrenergic α2C receptor [3]) | inhibition at 1 µM [4] | α1 [%] (adrenergic α1 receptor) | inhibition at 1 µM (adrenergic α2C receptor [5]) | inhibition at 1 µM [6] | inhibition at 1 µM [8] | inhibition at 1 µM (dopaminergic D2 receptor) | hERG [%] (hERG potassium channels; [9]) | activation at 1 µM (adrenergic α2C receptor [5]; [10]) | inhibition at 1 µM [7, 11] | activation at 1 µM [7, 12] | activation at 1 µM [8, 10] | other results
1 | O=S(=O)(NCCCCN1CCN(c2nsc3ccccc23)CC1)c1ccc2ccccc2c1 [Compound 2, N-(4-(4-(1,2-Benzothiazol-3-yl)piperazin-1-yl)butyl)naphthalene-2-sulphonamide] | 97% | 100% | 65% | 69% | 101% | 99% | 97% | 30% | 100% | 80% | 98% | – | – | – | – | – | hERG [%] (hERG potassium channels): 14%; activation at 1 µM (adrenergic α2C receptor [5]): -8%; activation at 1 µM ([7]; CHO, read-out: 5-HT1A-ag [%]): 47%; inhibition at 1 µM ([7]; CHO, read-out: 5-HT1A-antag. [%]): 18%; activation at 1 µM [8]: -1%
2 | O=S(=O)(NCCCCN1CCN(c2nsc3ccccc23)CC1)c1ccc2cc(Cl)ccc2c1 [Compound 61, N-[4-[4-(1,2-Benzothiazol-3-yl)piperazin-1-yl]butyl]-6-chloro-naphthalene-2-sulphonamide] | 96% | 96% | 46% | 55% | 101% | 94% | 94% | 18% | 100% | 78% | 100% | 12% | 1% | 20% | 75% | -1% | –
3 | O=S(=O)(NCCCCN1CCN(c2cccc3[nH]ccc23)CC1)c1cc2ccc(Cl)cc2s1 [Compound 363, 6-Chloro-N-[4-[4-(1H-indol-4-yl)piperazin-1-yl]butyl]benzothiophene-2-sulphonamide] | 84% | 101% | 96% | 32% | 101% | 101% | 92% | 42% | 98% | 24% | 99% | 0% | 17% | 27% | 78% | 6% | –
4 | O=S(=O)(NCCCCN1CCN(c2cccc3[nH]ccc23)CC1)c1cnc2ccccn12 [Compound 30, N-{4-[4-(1H-Indol-4-yl)piperazin-1-yl]butyl}-imidazo[1,2-a]pyridine-3-sulphonamide] | 5% | 98% | 42% | 14% | 99% | 100% | 96% | 35% | 67% | 73% | 98% | −3% | 18% | 86% | 22% | 5% | –
5 | N#Cc1cccc(S(=O)(=O)NCCCN2CCC(c3noc4cc(F)ccc34)CC2)c1 [Compound 338, 3-cyano-N-[3-[4-(6-fluoro-1,2-benzoxazol-3-yl)piperidin-1-yl]propyl]benzenesulphonamide] | 94% | 100% | 72% | 21% | 104% | 80% | 99% | 9% | 102% | 100% | 98% | 40.5% | -3% | – | – | -3% | –
6 | O=S(=O)(NCCCCN1CCN(c2cccc3[nH]ccc23)CC1)c1cccc(Cl)c1 [Compound 113, N-[4-[4-(1H-Indol-4-yl)piperazin-1-yl]butyl]-3-chlorobenzenesulphonamide] | 74% | 99% | 92% | 28% | 99% | 100% | 99% | 53% | 69% | 45% | 98% | 16% | 13% | 92% | 32% | 9% | –
7 | Cc1cccc(S(=O)(=O)NCCCN2CCN(c3nsc4ccccc34)CC2)c1 [Compound 7, N-(3-(4-(1,2-Benzothiazol-3-yl)piperazin-1-yl)propyl)-3-methylbenzenesulphonamide] | 98% | 97% | 61% | 88% | 96% | 99% | 98% | 2% | 100% | 98% | 95% | 14% | -6% | 51% | 59% | -1% | –
8 | O=S(=O)(NCCCCN1CCN(c2cccc3[nH]ccc23)CC1)c1ccc(F)cc1 [Compound 359, 4-Fluoro-N-[4-[4-(1H-indol-4-yl)piperazin-1-yl]butyl]benzenesulphonamide] | 42% | 100% | 85% | 33% | 99% | 100% | 97% | 38% | 79% | 43% | 96% | 9% | 13% | 94% | 22% | 8% | –
9 | O=S(=O)(NCCCCN1CCN(c2nsc3ccccc23)CC1)c1cccc2ccccc12 [Compound 1, N-(4-(4-(1,2-Benzothiazol-3-yl)piperazin-1-yl)butyl)naphthalene-1-sulphonamide] | 95% | 96% | 54% | 49% | 100% | 96% | 99% | 7% | 99% | 97% | 97% | 16% | -9% | – | – | -1% | –
